{"source": "patent US20220380286A1", "about": "“METHOD FOR PRODUCING 2,2'-BIS(CARBOXYMETHOXY)-1,1'-BINAPHTHYL” (HONSHU CHEMICAL INDUSTRY CO., LTD., priority 2019, published 2022)", "test": "solubility in water (concentration of saturated solution)", "type": "physicochemical", "settings": "30° C., crystals filtered in Example 2", "protocol": "After two hours, the reaction solution was gradually cooled and filtered at 25° C. (corresponding to the separation step of the present invention) to obtain crystals. […] The crystals were washed with water (18 g) and then washed with methyl isobutyl ketone (18 g) to obtain 109.0 g of a sodium salt of 2,2′-bis(carboxymethoxy)-1,1′-binaphthyl. For the removal of a mother liquor during the filtration, centrifugal force (small centrifuge H-122, manufactured by KOKUSAN Co., Ltd.) was utilized.", "data": [{"smiles": "O=C([O-])COc1ccc2ccccc2c1-c1c(OCC(=O)[O-])ccc2ccccc12.[Na+].[Na+]", "note": "[sodium salt of 2,2′-bis(carboxymethoxy)-1,1′-binaphthyl]", "values": [{"measurement": "concentration of saturated solution in water", "value": 3.8, "unit": "wt %"}]}]}
